According to article PMC11242993, “Evaluation of the Therapeutic Potential of Sulfonyl Urea Derivatives as Soluble Epoxide Hydrolase (sEH) Inhibitors” (Molecules, 2024):

Experiments:
[1] = Plasma protein binding (equilibrium dialysis), human; format: in vitro ADME; conditions: for fraction unbound at 5 h, 1 μM: plasma (non-diluted), pH 7.4, read-out: Plasma Protein Binding Human % of Bound Comp
Method: The assay was performed in a multiple-use 96-well dialysis unit (HTD96b dialyzer). Each individual well unit consisted of 2 chambers separated by a vertically aligned dialysis membrane of predetermined pore size (MWCO 12–14 kDa). An amount of 120 μL of non-diluted plasma spiked with the compound (1 μM, final DMSO concentration 1%) was added to one chamber, and the same volume of PBS buffer with pH 7.4 was added to the other chamber. The HTD96b dialyzer was covered with adhesive sealing film and incubated at 37 °C and shaken at 100 rpm for 5 h. For sample preparation, an aliquot of the content of each chamber was mixed with the same volume of the blank opposite matrix. To define the non-specific loss of the compound during this assay, a standard solution was created by mixing an aliquot of spiked plasma with a blank buffer without dialysis. Two aliquots of the standard solution were incubated at 37 °C and shaken at 100 rpm for 5 h (recovery samples). The other two aliquots were immediately diluted with acetonitrile and stored at 4 °C until LC–MS/MS analysis (stability samples). All samples were diluted 5-fold with 100% methanol with subsequent plasma protein sedimentation by centrifuging at 6000 rpm for 5 min. Supernatants were analyzed using the HPLC system coupled with a tandem mass spectrometer.

Microsomal stability = format: in vitro ADME; conditions: pH 7.4, human liver microsomes; for remaining at 1 h, 2 μM: read-out: Human Metabolic Stability % Remaining after 1 h; for half-life at 2 μM: read-out: Human Metabolic Stability Half Life
Method: Human microsomal incubations were carried out in 96-well plates in 5 aliquots of 30 μL each (one for each time point). Human liver microsomal incubation medium comprised of phosphate buffer (100 mM, pH 7.4), MgCl2 (3.3 mM), NADPH (3 mM), glucose-6-phosphate (5.3 mM), glucose-6-phosphate dehydrogenase (0.67 units/mL) with 0.42 mg of liver microsomal protein per ml. In the control reactions, the NADPH-cofactor system was substituted with phosphate buffer. Test compounds (2 μM, final solvent concentration 1.6%) were incubated with microsomes at 37 °C and shaken at 100 rpm. Each reaction was performed in duplicates. Five time points over 40 min were analyzed. The reactions were stopped by adding 5 volumes of methanol containing the internal standard to the incubation aliquots, followed by protein sedimentation by centrifuging at 5500 rpm for 4 min. Supernatants were analyzed using the HPLC system coupled with a tandem mass spectrometer.

Caco-2 cells = experiment: Caco-2 permeability; format: in vitro ADME
Method: Caco-2 cells were cultured in 75 cm^2 flasks to 80–90% confluence according to the ATCC and Millipore recommendations in a humidified atmosphere at 37 °C and 5% CO2. Cells were detached with a trypsin/EDTA solution, resuspended in the complete medium containing DMEM high glucose ([…]) with L-glutamine (4 mM) supplemented with 10% heat-inactivated Fetal Bovine Serum, 1% non-essential amino acids, and 730 nM puromycin, and seeded at a density of 5 × 10^5 cells in a 75 cm^2 flask. After 5 days, cells were trypsinized and resuspended in the complete medium to a final concentration of 600 × 10^3 cells/mL. Of the cell suspension, 400 µL was added to each well of an HTS 24-Multiwell Insert System and 25 mL of prewarmed complete medium was added to the feeder tray. Caco-2 cells were incubated in the Multiwell Insert System for 6–10 days before the transport experiments. The medium in the filter plate and feeder tray was refreshed every other day. Prior to the transport experiment, the integrity of the monolayer was verified by measuring the transepithelial electrical resistance (TEER) for every well using a Millicell-ERS system ohm meter. The final TEER values were within the range of 150–600 Ω × cm^2, as required for the assay conditions. The 24-well insert plate was removed from its feeder plate and placed in a new sterile 24-well transport analysis plate. The inserts were washed with PBS after medium aspiration. Ketoprofen, atenolol, digoxin, and quinidine were used as reference compounds.
To determine transport rates in the basolateral (B)-to-apical (A) direction, 1000 μL of the test compound solutions was added into the wells of the transport analysis plate, and the wells in the filter plate were filled with 300 μL of buffer (apical compartment).
The effect of the inhibitor on the Pgp-mediated transport of the tested compounds was assessed by determining the bidirectional transport in the presence or absence of verapamil. The Caco-2 cells were preincubated for 30 min at 37 °C with 100 μM of verapamil in both apical and basolateral compartments. After removal of the preincubation medium, the test compounds with verapamil (100 μM) in transport buffer were added in donor wells, while the receiver wells were filled with the appropriate volume of transport buffer with 100 μM of verapamil. The final amounts of test and reference compounds were 10 μM each. The plates were incubated for 90 min at 37 °C under continuous shaking at 100 rpm. Aliquots of 75 μL were taken from the donor and receiver compartments for LC–MS/MS analysis. All samples were mixed with 2 volumes of acetonitrile followed by protein sedimentation by centrifuging at 10,000 rpm for 10 min. Supernatants were analyzed using the HPLC system coupled with a tandem mass spectrometer.

C57BL/6J male mice = experiment: Hot plate model; format: in vivo; conditions: 10 mg/kg i.p.
Method: Thermal nociception in the hot plate test was assessed with a commercially available apparatus (Hotplate Analgesia Meter, Columbus Instruments) consisting of a metal plate to a constant temperature of 55.0 ± 0.1 °C. Mice were put into the hot plate testing instrument to adapt for at least 15 min. The device was connected to a manually operated timer that recorded the amount of time the mouse spent on the heated surface before showing signs of nociception (e.g., licked its paws or jumped), the cut-off time was 60 s. The baseline (basic pain threshold, the response was more than 25 s, and the jumping mice were excluded.) was calculated as the mean of three readings recorded before testing at intervals of 15 min. The time course of latency was then determined at 15, 30, 45, 60, 90, and 120 min after compound treatment. Data were analyzed as time-course curves of the percentage of maximum effect MPE% = (post drug latency − baseline latency) × 100/(cut-off time − baseline latency). C57BL/6J male mice obtained from The Jackson Laboratory (Bar Harbor, ME, USA) weighing 28 g were used for the hot plate test. Animal procedures were conducted following the rules and regulations of the Institutional Animal Care and Use Committee of the National Institute on Alcohol Abuse and Alcoholism (NIAAA) under the protocols of LPS-GK1.

| Structure (SMILES) | compound stability in plasma during dialysis [1] [%] | fraction unbound at 5 h, 1 μM [1] | remaining at 1 h, 2 μM (Microsomal stability) [%] | half-life at 2 μM (Microsomal stability) [h] | Pgp substrate status from Caco-2 efflux ratio (Caco-2 cells) | brain penetrability judged from Caco-2 permeability (Caco-2 cells) | analgesic effect in hot plate assay (C57BL/6J male mice) |
| --- | --- | --- | --- | --- | --- | --- | --- |
| O=C(NC12CC3CC(CC(C3)C1)C2)NS(=O)(=O)c1ccc(OC(F)(F)F)cc1 [Compound 4f] | 99 | < 0.001 | 80 | 1.77 | not Pgp substrates | brain penetrable | none of the sEH inhibitors, including AUDA, showed any analgesic effect |
| O=C(NC12CC3CC(CC(C3)C1)C2)NS(=O)(=O)c1ccc2ccccc2c1 [Compound 4l] | 99 | < 0.001 | 45 | 0.557 | – | brain penetrable | none of the sEH inhibitors, including AUDA, showed any analgesic effect |
